Values quoted from earlier work as cited in US5840770A, “Method of killing tumor cells” (Hill Medical Corporation, priority 1997, dated 1998).
One block for each compound: values may come before it.

Experiments:
cholinergic receptors = details: in vivo
[1] = not given; remark: listed apart in the source
[2] = normally
[3] = system: mouse and rat transplanted tumors; details: in vivo
[4] = system: low-grade non-Hodgkin's lymphoma, cutaneous T cell lymphoma, chronic myelogenous leukemia, Kaposi's sarcoma and especially hairy cell leukemia
serum potassium = details: in vivo

Compound: CC[C@@H]1C(=O)OC[C@@H]1Cc1cncn1C [Pilocarpine, pilocarpine]
duration (cholinergic receptors): 4 to 8 h
onset (cholinergic receptors): 15 to 30 min

Compound: Glucagon: glucagon alone
effect on transplanted tumors [3]: arrested these cancers

Compound: Interferon-alpha
efficacy ([4]; listed lymphomas, leukemias, Kaposi's sarcoma): effective
effect on other tumors ([4]; tumors other than those listed): no effect

Compound: insulin
effect on transplanted tumors [3]: no therapeutic effect
serum potassium concentration (serum potassium): lowers serum potassium concentration

The remaining lines, values ahead:

infused glucose retained (0.8 gm/kg/hour): 95%
maximum infusion rate without producing glycosuria (in vivo): 0.5 gm/kg/hour
osmolarity ([1]; 5% dextrose): 253 mOsm/L
tonicity ([1]; 5% dextrose solution): isotonic
Compound: O=C[C@H](O)[C@@H](O)[C@H](O)[C@H](O)CO [dextrose]

potassium intake excreted in the urine [2]: 80-90%
Compound: [K+] [potassium]
